Like-named read-outs stand apart in the source and are kept apart here. Starred links: 1 amine or outer side, 2 acyl side, 3 side chain; linkers in the order of their positions; H or OH if unused. Positions of bridges follow the written chain, without caps; N, C: chain ends. Non-standard residues stand in square brackets, D forms with d. Residues, ends and D or L forms follow the SMILES beside them. ξ: configuration not given here. 2Furoyl(5-aminomethyl) = O=C(c1ccc(CN[*:1])o1)[*:2]; Ala(imidazol-2-yl) = N[C@@H](Cc1ncc[nH]1)C(=O)O; Arg(NO2) = N=C(NCCC[C@H](N)C(=O)O)N[N+](=O)[O-]; Phe(4-COOH) = N[C@@H](Cc1ccc(C(=O)O)cc1)C(=O)O; Trp(5-F) = N[C@@H](Cc1c[nH]c2ccc(F)cc12)C(=O)O; Isophthaloyl = O=C(c1cccc(C(=O)[*:2])c1)[*:1]; Phac(3-amino) = O=C(Cc1cccc(N[*:1])c1)[*:2]; dPro(cis-4-NH2) = N[C@H]1CN[C@@H](C(=O)O)C1; X33 = CC(C)C(N[*:1])c1ncc(C(=O)[*:2])[nH]1; mXylylene(5-F) = Fc1cc(C[*:1])cc(C[*:2])c1; Pro(cis-4-F) = O=C(O)[C@@H]1C[C@H](F)CN1; X4 = O=C(CCSCc1cccc(CSCCN[*:1])c1)[*:2]; X64 = C[C@H](N[*:1])c1ncc(C(=O)[*:2])s1; mXylylene = c1cc(C[*:1])cc(C[*:2])c1; Hyp = O=C(O)[C@@H]1C[C@@H](O)CN1; ξAla(CF3) = NC(CC(F)(F)F)C(=O)O; aThr = C[C@H](O)[C@H](N)C(=O)O; Aoc(2) = CCCCCC[C@H](N)C(=O)O; X59 = Fc1ccc(C[*:2])cc1C[*:1]; X63 = c1ncc(C[*:2])nc1C[*:1]; αMeP = C[C@@]1(C(=O)O)CCCN1; dOrn = NCCC[C@@H](N)C(=O)O; Orn = NCCC[C@H](N)C(=O)O; Dab = NCC[C@H](N)C(=O)O; X2 = O=C(C[*:2])[*:1]; Mpa = O=C(O)CCS
Biological target: PCSK9 (Homo sapiens (Human), UniProt Q8NBP7)
Sequence (Q8NBP7 153-692): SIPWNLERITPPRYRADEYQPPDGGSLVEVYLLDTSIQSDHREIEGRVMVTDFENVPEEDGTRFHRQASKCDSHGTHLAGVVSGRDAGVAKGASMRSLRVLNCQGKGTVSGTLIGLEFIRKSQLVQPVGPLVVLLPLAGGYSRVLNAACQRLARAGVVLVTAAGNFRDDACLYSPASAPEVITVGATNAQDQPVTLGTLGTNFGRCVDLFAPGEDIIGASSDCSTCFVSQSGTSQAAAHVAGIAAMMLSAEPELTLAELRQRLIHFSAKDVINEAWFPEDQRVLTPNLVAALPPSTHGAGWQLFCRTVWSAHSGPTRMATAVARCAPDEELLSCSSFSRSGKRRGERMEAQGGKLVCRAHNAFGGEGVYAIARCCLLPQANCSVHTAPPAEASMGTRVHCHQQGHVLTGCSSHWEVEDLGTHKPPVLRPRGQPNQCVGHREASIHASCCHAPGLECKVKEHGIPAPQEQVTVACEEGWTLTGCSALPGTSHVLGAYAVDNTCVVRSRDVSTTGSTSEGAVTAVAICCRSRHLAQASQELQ
Test: PCSK9 Alexa FRET Standard assay (displacement of AlexaFluor647 tagged cyclic peptide Reagent A)
Assay type: binding
Summary of the method: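 TR-FRET displacement: 0.5 nM biotinylated PCSK9 with 1.25 nM Strep-Eu and 20 nM AlexaFluor-tagged cyclic peptide (final) in 50 mM HEPES pH 7.4, 0.15 M NaCl, 5 mM CaCl2, 0.01% BSA, 0.01% P20, ≥2 h at room temperature. IC50 from sigmoidal fit, converted to Ki via peptide KD; falling Eu counts flagged false positives.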

[1] = PCSK9 Alexa FRET Standard assay, 0.5 nM PCSK9, 20 nM AF cyclic peptide Reagent A, read-out: IC50

Compound | IC50 [1] [µM] | IC50 (IC50) [µM]
COc1ccc(C[C@@H]2NC(=O)[C@H]([C@@H](C)O)NC(=O)[C@@H]3CCCN3C(=O)[C@H](Cc3c[nH]c4ccc(F)cc34)NC(=O)[C@H](Cc3c[nH]c4ccc(F)cc34)NC(=O)[C@@H](C)NC(=O)[C@H](CCCCN)NC(=O)CCSCc3cc(ccc3F)CSC[C@@H](C(N)=O)NC(=O)[C@]3(C)CCCN3C2=O)cc1 [Compound 069] ([Mpa]K[dA][Trp(5-F)][Trp(5-F)]PTY(Me)[αMeP]C-NH2; linker 1-10 via X59) | 21 to 50 | –
COc1ccc(C[C@@H]2NC(=O)[C@@H]([C@H](C)O)NC(=O)[C@@H]3C[C@@H](O)CN3C(=O)[C@H](Cc3c[nH]c4ccc(F)cc34)NC(=O)[C@H](Cc3c[nH]c4ccc(F)cc34)NC(=O)[C@@H](C)NC(=O)[C@H](CCCCN)NC(=O)CCSCc3cccc(c3)CSCCNC(=O)[C@]3(C)CCCN3C2=O)cc1 [Compound 084] (cyclo([Hyp][dT]Y(Me)[αMeP][X4]K[dA][Trp(5-F)][Trp(5-F)])) | 0.1 to 1 | –
COc1ccc(C[C@@H]2NC(=O)[C@H]([C@@H](C)O)NC(=O)[C@@H]3C[C@H](F)CN3C(=O)[C@H](Cc3c[nH]c4ccc(F)cc34)NC(=O)[C@H](Cc3c[nH]c4ccc(F)cc34)NC(=O)[C@@H](C)NC(=O)[C@H](CCCCN)NC(=O)[C@@H](NC(C)=O)CCNC(=O)COc3ccc(cc3)C[C@@H](C(N)=O)NC(=O)[C@]3(C)CCCN3C2=O)cc1 [Compound 075] (Ac-[Dab]K[dA][Trp(5-F)][Trp(5-F)][Pro(cis-4-F)]TY(Me)[αMeP]Y-NH2; linker 1-10 via X2) | 21 to 50 | –
C[C@@H]1NC(=O)[C@H](Cc2c[nH]c3ccc(F)cc23)NC(=O)[C@H](Cc2c[nH]c3ccc(F)cc23)NC(=O)[C@@H](C)NC(=O)[C@H](CCCCN)NC(=O)CCSCc2cccc(c2)CSC[C@@H](C(N)=O)NC(=O)[C@]2(C)CCCN2C(=O)[C@H](Cc2ccc(O)cc2)NC(=O)C2=CN=C1S2 [Compound 460] ([Mpa]K[dA][Trp(5-F)][Trp(5-F)][X64]Y[αMeP]C-NH2; linker 1-9 via mXylylene) | 0.00011 to 0.1 | –
COc1ccc(C[C@@H]2NC(=O)[C@H]([C@@H](C)O)NC(=O)[C@@H]3CCCN3C(=O)[C@H](Cc3c[nH]c4ccc(F)cc34)NC(=O)[C@H](Cc3c[nH]c4ccc(F)cc34)NC(=O)[C@@H](C)NC(=O)[C@H](CCCCN)NC(=O)CCSCc3cncc(n3)CSC[C@@H](C(N)=O)NC(=O)[C@]3(C)CCCN3C2=O)cc1 [Compound 090] ([Mpa]K[dA][Trp(5-F)][Trp(5-F)]PTY(Me)[αMeP]C-NH2; linker 1-10 via X63) | 1 to 12.1 | –
C[C@@]12CCCN1C(=O)[C@H](Cc1ccc(O)cc1)NC(=O)CN1C(=O)[C@H](N=C(C3CCCCC3)c3ccccc31)NC(=O)[C@H](Cc1c[nH]c3ccc(F)cc13)NC(=O)[C@H](Cc1c[nH]c3ccc(F)cc13)NC(=O)CNC(=O)[C@H](CCCCN)NC(=O)CCSCc1cccc(c1)CSC[C@@H](C(N)=O)NC2=O [Compound 128] | 21 to 50 | –
CC(C)C1NC(=O)CCSCc2cccc(c2)CSC[C@@H](C(N)=O)NC(=O)[C@]2(C)CCCN2C(=O)[C@H](Cc2ccc(O)cc2)NC(=O)[C@H](Cc2c[nH]cn2)NC(=O)[C@H](CC(=O)O)NC(=O)[C@H](Cc2c[nH]c3ccc(F)cc23)NC(=O)[C@H](Cc2c[nH]c3ccc(F)cc23)NC(=O)c2cnc1[nH]2 (stereo partly drawn) [Compound 450] ([Mpa][X33][Trp(5-F)][Trp(5-F)]DHY[αMeP]C-NH2; linker 1-9 via mXylylene) | 0.1 to 1 | –
C[C@@]12CCCN1C(=O)[C@H](Cc1ccc(O)cc1)NC(=O)CN1C(=O)[C@H](CCc3ccccc31)NC(=O)[C@H](Cc1c[nH]c3ccc(F)cc13)NC(=O)[C@H](Cc1c[nH]c3ccc(F)cc13)NC(=O)CNC(=O)[C@H](CCCCN)NC(=O)CCSCc1cccc(c1)CSC[C@@H](C(N)=O)NC2=O [Compound 110] | 21 to 50 | –
COc1ccc(C[C@@H]2NC(=O)[C@H]([C@@H](C)O)NC(=O)[C@@H]3CCCN3C(=O)[C@H](Cc3c[nH]c4ccc(F)cc34)NC(=O)[C@H](Cc3c[nH]c4ccc(F)cc34)NC(=O)[C@@H](C)NC(=O)[C@H](CCCCN)NC(=O)CCSCc3cc(F)cc(c3)CSC[C@@H](C(N)=O)NC(=O)[C@]3(C)CCCN3C2=O)cc1 [Compound 041] ([Mpa]K[dA][Trp(5-F)][Trp(5-F)]PTY(Me)[αMeP]C-NH2; linker 1-10 via mXylylene(5-F)) | 21 to 50 | –
COc1ccc(C[C@@H]2NC(=O)[C@@H]([C@H](C)O)NC(=O)[C@H]3C[C@@H](N)CN3C(=O)[C@H](Cc3c[nH]c4ccc(F)cc34)NC(=O)[C@H](Cc3c[nH]c4ccc(F)cc34)NC(=O)[C@@H](C)NC(=O)[C@H](CCCCN)NC(=O)CCSCc3cccc(c3)CSCCNC(=O)[C@]3(C)CCCN3C2=O)cc1 [Compound 083] (cyclo(K[dA][Trp(5-F)][Trp(5-F)][dPro(cis-4-NH2)][dT]Y(Me)[αMeP][X4])) | 0.1 to 1 | –
CO[C@@H](C)[C@@H]1NC(=O)[C@@H]2CCCN2C(=O)[C@H](Cc2c[nH]c3ccc(F)cc23)NC(=O)[C@H](Cc2c[nH]c3ccc(F)cc23)NC(=O)CNC(=O)[C@H](CCCCN)NC(=O)CCSCc2cccc(c2)CSCCNC(=O)[C@]2(C)CCCN2C(=O)[C@H](Cc2ccc(O)cc2)NC1=O [Compound 070] (cyclo(G[Trp(5-F)][Trp(5-F)]P[aThr](Me)Y[αMeP][X4]K)) | 21 to 50 | –
COc1ccc(C[C@@H]2NC(=O)[C@H](Cc3cnc[nH]3)NC(=O)[C@H](CC(=O)O)NC(=O)[C@H](Cc3c[nH]c4ccc(F)cc34)NC(=O)[C@H](Cc3c[nH]c4ccc(F)cc34)NC(=O)[C@@H](C)NC(=O)Cc3cccc(c3)NC(=O)C[C@@H](C(=O)O)NC(=O)[C@]3(C)CCCN3C2=O)cc1 [Compound 413] ([Phac(3-amino)][dA][Trp(5-F)][Trp(5-F)]DHY(Me)[αMeP]D-OH; lactam N-9) | 21 to 50 | –
COc1ccc(C[C@@H]2NC(=O)[C@H]([C@H](C)O)NC(=O)[C@@H]3C[C@H](F)CN3C(=O)[C@H](Cc3c[nH]c4ccc(F)cc34)NC(=O)[C@H](Cc3c[nH]c4ccc(F)cc34)NC(=O)[C@@H](C)NC(=O)[C@H](C)NC(=O)[C@@H](NC(C)=O)CCNC(=O)c3cccc(c3)C(=O)NCCC[C@@H](C(N)=O)NC(=O)[C@]3(C)CCCN3C2=O)cc1 [Compound 134] (Ac-[Dab]A[dA][Trp(5-F)][Trp(5-F)][Pro(cis-4-F)][aThr]Y(Me)[αMeP][Orn]-NH2; linker 1-10 via Isophthaloyl) | 21 to 50 | –
C[C@@]12CCCN1C(=O)[C@H](Cc1ccc(O)cc1)NC(=O)CN1CCCC[C@H](NC(=O)[C@H](Cc3c[nH]c4ccc(F)cc34)NC(=O)[C@H](Cc3c[nH]c4ccc(F)cc34)NC(=O)CNC(=O)[C@H](CCCCN)NC(=O)CCSCc3cccc(c3)CSC[C@@H](C(N)=O)NC2=O)C1=O [Compound 104] | 21 to 50 | –
COc1ccc(C[C@@H]2NC(=O)[C@H](Cc3cnc[nH]3)NC(=O)[C@H](CC(=O)O)NC(=O)[C@H](Cc3c[nH]c4ccc(F)cc34)NC(=O)[C@H](Cc3c[nH]c4ccc(F)cc34)NC(=O)[C@@H](C)NC(=O)[C@H](NC(C)=O)CCCCNC(=O)c3ccc(cc3)C[C@@H](C(N)=O)NC(=O)[C@]3(C)CCCN3C2=O)cc1 [Compound 341] (Ac-[dK][dA][Trp(5-F)][Trp(5-F)]DHY(Me)[αMeP][Phe(4-COOH)]-NH2; lactam 1-9) | 21 to 50 | –
COc1ccc(C[C@@H]2NC(=O)[C@H](Cc3ncc[nH]3)NC(=O)[C@H](CC(=O)O)NC(=O)[C@H](Cc3c[nH]c4ccc(F)cc34)NC(=O)[C@H](Cc3c[nH]c4ccc(F)cc34)NC(=O)[C@@H](C)NC(=O)[C@H](CCC/N=C(\N)N[N+](=O)[O-])NC(=O)CCSCc3cccc(c3)CSCCNC(=O)[C@]3(C)CCCN3C2=O)cc1 [Compound 445] (cyclo([Arg(NO2)][dA][Trp(5-F)][Trp(5-F)]D[Ala(imidazol-2-yl)]Y(Me)[αMeP][X4])) | – | 21 to 50
C[C@@]12CCCN1C(=O)[C@H](Cc1ccc(O)cc1)NC(=O)[C@H](Cc1cnc[nH]1)NC(=O)[C@H](CC(=O)O)NC(=O)[C@H](Cc1c[nH]c3ccc(F)cc13)NC(=O)[C@H](Cc1c[nH]c3ccc(F)cc13)NC(=O)CNC(=O)[C@@H](CCCN)NC(=O)CCSCc1cccc(c1)CSC[C@@H](C(N)=O)NC2=O [Compound 356] ([Mpa][dOrn]G[Trp(5-F)][Trp(5-F)]DHY[αMeP]C-NH2; linker 1-10 via mXylylene) | 21 to 50 | –
CCCCCC[C@@H]1NC(=O)CCSCc2cccc(c2)CSCCNC(=O)[C@]2(C)CCCN2C(=O)[C@H](Cc2ccc(OC)cc2)NC(=O)[C@H](Cc2ncc[nH]2)NC(=O)[C@H](CC(=O)O)NC(=O)[C@H](Cc2c[nH]c3ccc(F)cc23)NC(=O)[C@H](Cc2c[nH]c3ccc(F)cc23)NC(=O)[C@@H](C)NC1=O [Compound 442] (cyclo([Aoc(2)][dA][Trp(5-F)][Trp(5-F)]D[Ala(imidazol-2-yl)]Y(Me)[αMeP][X4])) | 0.00011 to 0.1 | –
COc1ccc(C[C@@H]2NC(=O)[C@H](Cc3ncc[nH]3)NC(=O)[C@H](CC(=O)O)NC(=O)[C@H](Cc3c[nH]c4ccc(F)cc34)NC(=O)[C@H](Cc3c[nH]c4ccc(F)cc34)NC(=O)[C@@H](C)NC(=O)C(CC(F)(F)F)NC(=O)CCSCc3cccc(c3)CSCCNC(=O)[C@]3(C)CCCN3C2=O)cc1 (stereo partly drawn) [Compound 444] (cyclo(D[Ala(imidazol-2-yl)]Y(Me)[αMeP][X4][ξAla(CF3)][dA][Trp(5-F)][Trp(5-F)])) | 21 to 50 | –
CC(=O)N[C@H]1CCCC/C=C/CO[C@H]2C[C@@H](C(N)=O)N(C2)C(=O)[C@H](Cc2ccc(O)cc2)NC(=O)[C@H](Cc2cnc[nH]2)NC(=O)[C@H](CC(=O)O)NC(=O)[C@H](Cc2c[nH]c3ccc(F)cc23)NC(=O)[C@H](Cc2c[nH]c3ccc(F)cc23)NC(=O)CNC(=O)[C@H](CCCCN)NC1=O [Compound 431] | 0.00011 to 0.1 | –
C[C@H]1NC(=O)[C@H](CCCCN)NC(=O)CCSCc2cccc(c2)CSC[C@@H](C(N)=O)NC(=O)[C@]2(C)CCCN2C(=O)[C@H](Cc2ccc(O)cc2)NC(=O)C2=CC=C(CNC(=O)[C@H](Cc3c[nH]c4ccc(F)cc34)NC(=O)[C@H](Cc3c[nH]c4ccc(F)cc34)NC1=O)O2 [Compound 429] ([Mpa]K[dA][Trp(5-F)][Trp(5-F)][2Furoyl(5-aminomethyl)]Y[αMeP]C-NH2; linker 1-9 via mXylylene) | 0.1 to 1 | –
